Key:
[1] = system: S3H; details: 10 μM, Col-0 (Seedling), 3 hrs; cited from earlier work
[2] = system: S3H; assay: SA treatment of plants, RNA gel blot analysis of S3H expression; format: in vivo, Arabidopsis thaliana; details: 5 mM SA spray, Col-0 plants 25 DAG, 6 hours
Method: All chemicals used in this research were purchased from Sigma-Aldrich (St. Louis, Mo.), unless otherwise stated. Col-0 plants (25 DAG) were sprayed with 5 mM SA in 0.005% Silwet L-77 (Lehele Seeds, Tex.) or only 0.005% Silwet L-77 (mock). All rosette leaves of individual plants for RNA extraction were collected at different time points after the spray.
Total RNA extraction and RNA blot analysis were performed as described previously (He & Gan, “A Gene Encoding an Acyl Hydrolase Is Involved in Leaf Senescence in Arabidopsis,” Plant Cell 14(4):805-815 (2002), which is hereby incorporated by reference in its entirety). The DNA templates for probe labeling were amplified by the following different pairs of primers: S3H, G2956 and G2957; AtNAP, G3149 and G3150; SAG12, G10 and G246; SAG13, G9 and G16; EDS1, EDS1F and EDS1R; PAD4, PAD4F and PAD4R; PR1, PR1F and PR1R (FIG. 1E). The ethidium bromide staining of the RNA gels was used to show approximate amount of total RNA loading on each lane.

[3] = biological target: T1, recombinant S3H (Arabidopsis thaliana, UniProt Q9ZSA8); assay: Enzyme assay of recombinant S3H (substrate specificity and kinetics); format: biochemical; details: for S3H enzyme activity on substrate (in words): 30-min reaction under the same conditions as those for SA
T1 construct: His (N); made in house; host or cells: E. coli BL21 (DE3, pLys3)
T1 sequence (Q9ZSA8 1-349): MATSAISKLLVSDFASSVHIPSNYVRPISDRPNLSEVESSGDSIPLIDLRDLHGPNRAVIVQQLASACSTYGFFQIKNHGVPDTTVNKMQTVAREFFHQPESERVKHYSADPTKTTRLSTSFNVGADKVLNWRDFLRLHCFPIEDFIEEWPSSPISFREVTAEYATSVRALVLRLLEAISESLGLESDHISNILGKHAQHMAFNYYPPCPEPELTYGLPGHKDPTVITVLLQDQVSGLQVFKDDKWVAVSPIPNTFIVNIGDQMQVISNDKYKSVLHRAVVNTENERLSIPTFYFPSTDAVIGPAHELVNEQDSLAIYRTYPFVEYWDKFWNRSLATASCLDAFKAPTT
Method: (§1) The construct pET28a-S3H was introduced into E. coli BL21 (DE3, pLys3, Invitrogen, Carlsbad, Calif.). The bacterial cells containing pET28a-S3H were induced with 0.5 mM isopropyl β-D-1-thiogalactoside (IPTG) for 24 hr at 18° C., and were collected and disrupted by sonication in lysis buffer (20 mM Tris-Cl, pH7.5, 2 mM EDTA, 2 mM β-mercaptoethanol, 1 mM PMSF, 10 mM Imidazole, 0.1% Triton X-100, 20 mM sodium ascorbate). All subsequent purification procedures involving His-Bind® resin were performed at 4° C. according to the manufacturer (Novagen, Madison, Wis.). The recombinant protein concentration was quantified using Quick Start Bradford Dye Reagent (Biorad, Hercules, Calif.). 2 mM DTT was added to the enzyme solution and the protein was immediately kept in a −80° C. refrigerator.
(§2) The enzyme assay was performed using a method modified from Satio et al. (Saito et al., “Direct Evidence for Anthocyanidin Synthase as a 2-Oxoglutarate-Dependent Oxygenase: Molecular Cloning and Functional Expression of cDNA From a Red Forma of Perilla frutescens,” Plant J. 17(2):181-189 (1999), which is hereby incorporated by reference in its entirety). The reaction mixture (100 μl) contained 5 mM DTT, 4 mM sodium ascorbate, 1 mM 2-oxoglutaric acid, 0.4 mM FeSO4, 0.1 mg/ml catalase, 50 mM Tris-Cl pH8.0 or other buffer, 8-15 μg recombinant protein, various concentrations of SA. To determine the optimal temperature and pH for enzyme activity of S3H, the protein was incubated with 200 μM SA substrate in Tris-Cl buffer (pH8.0) at different temperatures for 15 min; or 500 μM SA substrate, in 50 mM Sodium citrate, Tris-Cl and Glycine buffers with different pH at 40° C. for 15 min. For enzyme kinetics analysis, various substrate SA concentrations ranging from 10 to 500 μM were used and the incubation proceeded for 6 min with pH 6.0. […] Mass spectra were recorded over 15 to 800 m/z in the negative mode. Km and Vmax were determined by Graphpad Prism 5 software using non-linear regression for Michaelis-Menten equation.

[4] = substrate: O=C(O)c1ccccc1O; assay: as above; format: biochemical, Arabidopsis thaliana; details: other: pH 6.0 and 40° C. for 6 min, mean ± SE of four replicates
Method: as §1, §2

O=C(O)c1ccccc1O [Salicylic acid]
Induction folds of S3H [1]: 36.72 | S3H expression after SA treatment (RNA gel blot) [2]: readily inducible | Specific activity ([3]; pH 6.0 and 40° C. for 30 min, mean ± SE of three replicates, n.d. = not detectable): 78.06 ± 9.75 nmol/mg/min

Nc1ccccc1C(=O)O [Anthranilic acid]
S3H enzyme activity on substrate (in words) [3]: did not have detectable activity

O=C(O)c1ccccc1 [Benzoic acid]
S3H enzyme activity on substrate (in words) [3]: did not have detectable activity

B1: recombinant S3H (Arabidopsis thaliana) (protein)
chain: MATSAISKLLVSDFASSVHIPSNYVRPISDRPNLSEVESSGDSIPLIDLRDLHGPNRAVIVQQLASACSTYGFFQIKNHGVPDTTVNKMQTVAREFFHQPESERVKHYSADPTKTTRLSTSFNVGADKVLNWRDFLRLHCFPIEDFIEEWPSSPISFREVTAEYATSVRALVLRLLEAISESLGLESDHISNILGKHAQHMAFNYYPPCPEPELTYGLPGHKDPTVITVLLQDQVSGLQVFKDDKWVAVSPIPNTFIVNIGDQMQVISNDKYKSVLHRAVVNTENERLSIPTFYFPSTDAVIGPAHELVNEQDSLAIYRTYPFVEYWDKFWNRSLATASCLDAFKAPTT
notes: His (N); made in house; host or cells: E. coli BL21 (DE3, pLys3)
Km [4]: 58.29 µM | Vmax [4]: 0.498 µmol/min/mg | kcat/Km [4]: 6090 M⁻¹ s⁻¹

— US9873889B2, “Increasing leaf longevity and disease resistance by altering salicylic acid catabolism” (priority 2013, dated 2018)
